Reference: patent US8598217B2, “Imidazole derivatives and their use as modulators of cyclin dependent kinases” (Astex Therapeutics Ltd., priority 2009, dated 2013)

target: CDK4/cyclin D1 (Homo sapiens (Human), UniProt P11802); assay: CDK4/cyclin D1 enzymatic activity assay (Protocol A, Lance TR-FRET); type: biochemical; settings: CDK4/cyclin D1, 175 nM pRb152, 3 μM ATP, 60 min, room temperature; read-out: IC50 against CDK4 kinase
Protocol: A 384-well microtiter Lance TR-FRET (time-resolved-fluorescence energy transfer) endpoint assay was used for CDK4/cyclin D1 kinase activity measurements. The same assay was used for IC50 determination of small molecule inhibitors. In general, the kinase reactions were carried out in 30 μL volumes in the reaction solution containing the following: 2 μL compound (in 20% DMSO), 18 uL CDK4/cyclin D1 in Assay Buffer (50 mM HEPES, pH 7.5, 5 mM MgCl2, 2 mM MnCl2, 1 mM DTT, 0.05% BSA, 0.02% Tween-20), 10 μL of the mixture of pRb152 and ATP. The final reaction mixture contains compound (inhibitor) with the concentration varying from […], 2% DMSO, 0.3 nM CDK4/cyclin D1, 175 nM pRb152, and 3 μM ATP (Amersham Pharmacia, Cat. No. 27-2056-01). All reactions were run at room temperature in 384-well white flat-bottom OptiPlates (Perkin Elmer, Cat. No. 6007290) for 60 min then were quenched by the addition of 10 μL of 120 mM EDTA. The signals were captured by the addition of 40 μL of the Detection Solution containing the following: Detection Buffer (50 mM HEPES, pH 7.5, 30 mM EDTA, 0.1% Triton x-100, 0.05% BSA), 70 ng/mL anti-phospho-pRb(S780) (Cell Signaling Technology, Cat. No. 9307S), 1 nM Lance Eu-W1024-Rabbit anti-IgG (Perkin Elmer, Cat. No. AD0082), and 20 nM SureLight™ Allophycocyanin-Streptavidin (Perkin Elmer, Cat. No. CR130-100). The resulted solutions were incubated at room temperature for 2 hours before read on the Evision Multilabel Reader (Perkin Elmer, Envision 2102-0010). Note: IC50<0.005 nM or IC50>10 μM indicates the true IC50 is out of detection range.
CDK4/cyclin D1 recombinant protein used in the enzymatic activity assay was prepared by coexpressing pDEST10-CDK4 (N-terminal His6) and pFastBacDual-GST-hCyclinD1 viruses in Sf21 cells. The overexpressed protein was purified by Ni-NTA affinity pull down to >80% pure by Sizing HPLC.

CDK4/cyclin D1, sequence (P11802 whole entry): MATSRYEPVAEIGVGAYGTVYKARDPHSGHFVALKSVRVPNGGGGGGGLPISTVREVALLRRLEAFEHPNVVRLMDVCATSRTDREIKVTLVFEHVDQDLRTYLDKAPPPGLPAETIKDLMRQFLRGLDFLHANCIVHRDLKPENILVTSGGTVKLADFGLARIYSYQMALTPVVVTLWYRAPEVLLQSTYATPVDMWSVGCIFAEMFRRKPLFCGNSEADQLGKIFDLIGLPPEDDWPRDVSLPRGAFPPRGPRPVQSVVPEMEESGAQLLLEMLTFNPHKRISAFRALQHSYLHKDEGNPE
CDK4/cyclin D1, sequence (P24385 whole entry partner): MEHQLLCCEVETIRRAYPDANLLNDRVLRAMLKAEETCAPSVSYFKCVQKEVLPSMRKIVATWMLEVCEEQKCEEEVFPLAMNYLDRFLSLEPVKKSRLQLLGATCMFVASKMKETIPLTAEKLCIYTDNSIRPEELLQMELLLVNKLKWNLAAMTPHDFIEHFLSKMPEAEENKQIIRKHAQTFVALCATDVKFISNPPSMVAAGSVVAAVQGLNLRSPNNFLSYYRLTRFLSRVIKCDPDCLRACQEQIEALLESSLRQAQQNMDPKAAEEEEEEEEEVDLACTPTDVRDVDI

SMILES | IC50
O=C(c1ccnc(-c2cncc3ccccc23)c1)c1nc2cc(OCC(O)CO)ccc2[nH]1 (stereo not shown) [Example 98, [5-(2,3-Dihydroxy-propoxy)-1H-benzoimidazol-2-yl]-(2-isoquinolin-4-yl-pyridin-4-yl)-methanone] | 33 nM
COc1ccc(F)c(F)c1-c1cc(C(=O)c2nc3ccc(N4CCC(N(C)C)CC4)nc3[nH]2)ccn1 [Example 148, [5-(4-dimethylamino-piperidin-1-yl)-3H-imidazo[4,5-b]pyridin-2-yl]-[2-(2,3-difloro-6-methoxy-phenyl)-pyridin-4-yl]-methanone] | 67 nM
CN1CCN(Cc2ccc3[nH]c(C(=O)c4ccnc(-c5cncc6ccccc56)c4)nc3c2)CC1 [Example 86, (2-Isoquinolin-4-yl-pyridin-4-yl)-[5-(4-methyl-piperazin-1-ylmethyl)-1H-benzoimidazol-2-yl]-methanone] | 27 nM
COc1ccc(F)c(F)c1-c1cc(C(=O)c2nc3cc(N4CCC(N(C)C)CC4)ccc3[nH]2)ccn1 [Example 103, [2-(2,3-Difluoro-6-methoxy-phenyl)-pyridin-4-yl]-[5-(4-dimethylamino-piperidin-1-yl)-1H-benzoimidazol-2-yl]-methanone] | 60 nM
CN(C)C1CCN(c2ccc3nc(C(=O)c4ccc(C#N)c(-c5cncc6[nH]ccc56)c4)[nH]c3n2)CC1 [Example 140, 4-[5-(4-Dimethylamino-piperidin-1-yl)-3H-imidazo[4,5-b]pyridine-2-carbonyl]-2-(1H-pyrrolo[2,3-c]pyridin-4-yl)-benzonitrile] | 4 nM
CN(C)C1CCN(c2ccc3nc(C(=O)c4ccnc(-c5cncc6ccccc56)c4)[nH]c3n2)CC1 [Example 135, [5-(4-Dimethylamino-piperidin-1-yl)-3H-imidazo[4,5-b]pyridin-2-yl]-(2-isoquinolin-4-yl-pyridin-4-yl)-methanone] | 12 nM
CN(C)C1CCN(c2ccc3[nH]c(C(=O)c4ccnc(-c5cncc6ccccc56)c4)nc3c2)CC1 [Example 89, [5-(4-Dimethylamino-piperidin-1-yl)-1H-benzoimidazol-2-yl]-(2-isoquinolin-4-yl-pyridin-4-yl)-methanone] | 4 nM
CN(C)Cc1ccc2nc(C(=O)c3ccnc(-c4cncc5ccccc45)c3)[nH]c2c1 [Example 84, (6-Dimethylaminomethyl-1H-benzoimidazol-2-yl)-(2-isoquinolin-4-yl-pyridin-4-yl)-methanone] | 57 nM

Second part, the compound after the results:

IC50 | SMILES
548 nM | Cc1n[nH]c(C)c1-c1cc(C(=O)c2nc3ccc(N4CCCNCC4)nc3[nH]2)ccn1 [Example 170, (5-[1,4]Diazepan-1-yl-3H-imidazo[4,5-b]-pyridin-2-yl)-[2-(3,5-dimethyl-1H-pyrazol-4-yl)-pyridin-4-yl]-methanone]
195 nM | Cc1n[nH]c(C)c1-c1cc(C(=O)c2nc3ccc(N4CCC(N(C)C)CC4)nc3[nH]2)ccn1 [Example 167, [5-(4-Dimethylamino-piperidin-1-yl)-3H-imidazo[4,5-b]pyridine-2-yl]-[2-(3,5-dimethyl-1H-pyrazol-4-yl)-pyridin-4-yl]-methanone]
260 nM | Cc1n[nH]c(C)c1-c1cc(C(=O)c2nc3ccc(N4CCNCC4)nc3[nH]2)ccn1 [Example 169, [2-(3,5-Dimethyl-1H-pyrazol-4-yl)-pyridin-4-yl]-(5-piperazin-1-yl-3H-imidazo[4,5-b]pyridine-2-yl)-methanone]
95 nM | Cc1nn(C)c(C)c1-c1cc(C(=O)c2nc3ccc(N4CCNCC4)nc3[nH]2)ccc1C#N [Example 189, 4-(5-piperazin-1-yl-3H-imidazo[4,5-b]pyridine-2-carbonyl)-2-(1,3,5-trimethyl-1H-pyrazol-4-yl)-benzonitrile]
12 nM | Cc1nn(C)c(C)c1-c1cc(C(=O)c2nc3ccc(N4CCC(N(C)C)CC4)nc3[nH]2)ccc1C#N [Example 173, 4-[5-(4-Dimethylamino-piperidin-1-yl)-3H-imidazo[4,5-b]pyridine-2-carbonyl]-2-(1,3,5-trimethyl-1H-pyrazol-4-yl)-benzonitrile]
77 nM | O=C(c1ccnc(-c2cncc3ccccc23)c1)c1nc2ccc(S(=O)(=O)N3CCNCC3)cc2[nH]1 [Example 182, (2-Isoquinolin-4-yl-pyridin-4-yl)-[6-(piperazine-1-sulfonyl)-1H-benzoimidazol-2-yl]-methanone]
3 nM | CN(C)C1CCN(c2ccc3nc(C(=O)c4ccc(C#N)c(-c5cncc6ccccc56)c4)[nH]c3n2)CC1 [Example 165, 4-[5-(4-Dimethylamino-piperidin-1-yl)-3H-imidazo[4,5-b]pyridine-2-carbonyl]-2-isoquinolin-4-yl-benzonitrile]
8 nM | N#Cc1ccc(C(=O)c2nc3ccc(N4CCNCC4)nc3[nH]2)cc1-c1cncc2ccccc12 [Example 166, 2-Isoquinolin-4-yl-4-(5-piperazin-1-yl-3H-imidazo[4,5-b]pyridine-2-carbonyl)-benzonitrile]

same assay, conditions: CDK4/cyclin D1, 175 nM pRb152, 3 μM ATP; bound stated; read-out: IC50 values against CDK4

SMILES | IC50
COc1cccc(F)c1-c1cc(C(=O)c2nc3ccc(N4CCC(N(C)C)CC4)cc3[nH]2)ccn1 [Example 50, [6-(4-Dimethylamino-piperidin-1-yl)-1H-benzoimidazol-2-yl]-[2-(2-fluoro-6-methoxy-phenyl)-pyridin-4-yl]-methanone] | < 10000 nM
O=C(c1ccnc(-c2cncc3ccccc23)c1)c1nc2cc(OCC(O)CO)ccc2[nH]1 (stereo not shown) [Example 98, [5-(2,3-Dihydroxy-propoxy)-1H-benzoimidazol-2-yl]-(2-isoquinolin-4-yl-pyridin-4-yl)-methanone] | < 10000 nM
CCNCc1cncc(-c2cc(C(=O)c3nc4cc(OC)c(OC)cc4[nH]3)ccc2C#N)c1 [Example 101, 4-(5,6-Dimethoxy-1H-benzoimidazole-2-carbonyl)-2-(5-ethylaminomethyl-pyridin-3-yl)-benzonitrile] | < 10000 nM
COc1cccc(F)c1-c1cc(C(=O)c2nc3ccc(N4CCN(C)CC4)cc3[nH]2)ccn1 [Example 49, [2-(2-Fluoro-6-methoxy-phenyl)-pyridin-4-yl]-[6-(4-methyl-piperazin-1-yl)-1H-benzoimidazol-2-yl]-methanone] | < 10000 nM
COc1ccc(F)c(F)c1-c1cc(C(=O)c2nc3cc(N4CCC(N(C)C)CC4)ccc3[nH]2)ccn1 [Example 103, [2-(2,3-Difluoro-6-methoxy-phenyl)-pyridin-4-yl]-[5-(4-dimethylamino-piperidin-1-yl)-1H-benzoimidazol-2-yl]-methanone] | < 10000 nM
CN(C)C1CCN(c2ccc3nc(C(=O)c4ccnc(-c5cncc6ccccc56)c4)[nH]c3n2)CC1 [Example 135, [5-(4-Dimethylamino-piperidin-1-yl)-3H-imidazo[4,5-b]pyridin-2-yl]-(2-isoquinolin-4-yl-pyridin-4-yl)-methanone] | < 10000 nM
CN(C)Cc1cccc2[nH]c(C(=O)c3ccnc(-c4cncc5ccccc45)c3)nc12 [Example 79A, (4-Dimethylaminomethyl-1H-benzoimidazol-2-yl)-(2-isoquinolin-4-yl-pyridin-4-yl)-methanone] | < 10000 nM
COc1ccc(F)c(F)c1-c1cc(C(=O)c2ncc[nH]2)ccn1 [Example 66, [2-(2,3-Difluoro-6-methoxy-phenyl)-pyridin-4-yl]-(1H-imidazol-2-yl)-methanone] | < 10000 nM
Cc1cc(F)ncc1-c1cc(C(=O)c2nc3ccc(N4CCC(N(C)C)CC4)cc3[nH]2)ccn1 [Example 119, [6-(4-Dimethylamino-piperidin-1-yl)-1H-benzoimidazol-2-yl]-(6′-fluoro-4′-methyl-[2,3′]bipyridinyl-4-yl)-methanone] | < 10000 nM
COc1cccc(F)c1-c1cc(C(=O)c2nc3cc(CN4CCOCC4)ccc3[nH]2)ccn1 [Example 73, [2-(2-Fluoro-6-methoxy-phenyl)-pyridin-4-yl]-(5-morpholin-4-ylmethyl-1H-benzoimidazol-2-yl)-methanone] | < 10000 nM
COc1ccc(F)c(F)c1-c1cc(C(=O)c2nc3c(CN(C)C)cccc3[nH]2)ccn1 [Example 79B, [2-(2,3-Difluoro-6-methoxy-phenyl)-pyridin-4-yl]-(4-dimethylaminomethyl-1H-benzoimidazol-2-yl)-methanone] | < 10000 nM
Cc1n[nH]c(C)c1-c1cc(C(=O)c2nc3ccc(N4CCC(N(C)C)CC4)cc3[nH]2)ccn1 [Example 129, [6-(4-Dimethylamino-piperidin-1-yl)-1H-benzoimidazol-2-yl]-[2-(3,5-dimethyl-1H-pyrazol-4-yl)-pyridin-4-yl]-methanone] | < 10000 nM

Results, then the compound that gave them:

IC50 | SMILES
< 10000 nM | Cc1nn(C)c(C)c1-c1cc(C(=O)c2nc3ccc(N4CCNC(C)(C)C4=O)nc3[nH]2)ccc1C#N [Example 209, 4-[5-(3,3-Dimethyl-2-oxo-piperazin-1-yl)-3H-imidazo[4,5-b]pyridine-2-carbonyl]-2-(1,3,5-trimethyl-1H-pyrazol-4-yl)-benzonitrile]
< 10000 nM | COc1ccc(F)c(F)c1-c1cncc(C(=O)c2nc3cc(CN(C)C)ccc3[nH]2)c1 [Example 159, [5-(2,3-Difluoro-6-methoxy-phenyl)-pyridin-3-yl]-(5-dimethylaminomethyl-1H-benzoimidazol-2-yl)-methanone]
< 10000 nM | Cc1nn(C)c(C)c1-c1cc(C(=O)c2nc3ccc(OC4CCNC4)nc3[nH]2)ccc1C#N (stereo not shown) [Example 160, 4-[5-(Pyrrolidin-3-yloxy)-3H-imidazo[4,5-b]pyridine-2-carbonyl]-2-(1,3,5-trimethyl-1H-pyrazol-4-yl)-benzonitrile]
